Experimental data published in ChEMBL document CHEMBL4354827, “Discovery of Novel, Potent, Brain-Permeable, and Orally Efficacious Positive Allosteric Modulator of α7 Nicotinic Acetylcholine Receptor [4-(5-(4-Chlorophenyl)-4-methyl-2-propionylthiophen-3-yl)benzenesulfonamide]: Structure-Activity Relationship and Preclinical Characterization” (J Med Chem, 2020).

What was measured:
[1] = Protein binding in human plasma assessed as unbound fraction at 5 uM incubated for 16 hrs under shaking condition by LC/MS/MS based rapid equilibrium dialysis method; format: ADME, cell-free
[2] = Brain to plasma permeability coefficient, Kp in Wistar rat at 10 mg/kg, po after 1 hr by LC-MS/MS analysis; format: ADME, organism-based
[3] = Metabolic stability in rat liver microsomes assessed as compound remaining at 1 uM preincubated for 5 mins followed by NADPH addition and measured after 30 mins by LC-MS/MS analysis; format: ADME, Microsome; settings: read-out: Stability
[4] = AUCt in Wistar rat brain at 10 mg/kg, po after 1 to 144 hrs by LC-MS/MS analysis; format: ADME, organism-based
[5] = Drug level in Wistar rat plasma at 0.05 mg/kg, po; format: ADME, organism-based; settings: in vivo
Rattus norvegicus [6] = experiment: Memory enhancement effect in scopolamine-induced Wistar rat model of amnesia assessed as increase in discrimination index at 0.05 mg/kg, po for 7 days and measured on day 8 by novel object recognition test (reference value: 0.21); format: functional
[7] = Protein binding in mouse plasma assessed as unbound fraction at 5 uM incubated for 16 hrs under shaking condition by LC/MS/MS based rapid equilibrium dialysis method; format: ADME, cell-free
[8] = Oral bioavailability in Wistar rat at 10 mg/kg after 0.25 to 144 hrs by LC-MS/MS analysis; format: ADME, organism-based; settings: in vivo
[9] = Half life in human at 7.5 to 50 mg administered for 14 days; format: ADME; settings: in vivo
Rattus norvegicus [10] = experiment: Memory enhancement effect in time-delay induced Wistar rat model of amnesia assessed as exploration time for object1 in acquisition trial at 3 mg/kg, po administered as single dose and measured on day 8 by novel object recognition test (reference value: 13.95 sec); format: functional
Rattus norvegicus [11] = experiment: Improvement in social recognition scopolamine-induced Sprague-Dawley rat model of amnesia assessed as reduction in recognition index at 1 mg/kg, po administered as single dose prior to 1 hr training and measured after 30 mins (reference value: 0.9); format: functional
Rattus norvegicus [12] = experiment: Memory enhancement effect in scopolamine-induced Wistar rat model of amnesia assessed as exploration time for familiar object in retention trial at 0.5 mg/kg, po administered as single dose and measured on day 9 by novel object recognition test (reference value: 8.59 sec); format: functional
[13] = AUClast in BALB/c mouse at 10 mg/kg, po after 0.25 to 144 hrs by LC-MS/MS analysis; format: ADME, organism-based; design: dose 10 mg/kg, time upper 144 hr, time lower 0.25 hr, route oral; settings: in vivo
Rattus norvegicus [14] = experiment: Memory enhancement effect in time-delay induced Wistar rat model of amnesia assessed as increase in novel object discrimination at 1 mg/kg, po administered as single dose after acquisition trial by novel object recognition test (reference value: 0.08); format: functional
[15] = Ratio of Cmax in brain to plasma in Wistar rat at 10 mg/kg, po after 144 hrs by LC-MS/MS analysis; format: ADME, organism-based
[16] = Drug level in Sprague-Dawley rat plasma at 0.15 mg/kg, po for 7 days; format: ADME, organism-based
[17] = Protein binding in rat plasma at 5 uM incubated for 16 hrs under shaking condition by LC/MS/MS based rapid equilibrium dialysis method; format: ADME, cell-free; settings: read-out: PPB (converted)
[18] = Drug metabolism in dog liver microsomes assessed as metabolic rate at 1 uM preincubated for 5 mins followed by NADPH addition after 30 mins by LC-MS/MS analysis; format: ADME, Canis lupus familiaris, Microsome; settings: 0.5 h
Rattus norvegicus [19] = experiment: Memory enhancement effect in scopolamine-induced Wistar rat model of amnesia assessed as exploration time for novel object in retention trial at 0.05 mg/kg, po for 7 days and measured on day 8 by novel object recognition test (reference value: 12.09 sec); format: functional
Rattus norvegicus [20] = experiment: Improvement in social recognition time delay-induced Sprague-Dawley rat model of amnesia assessed as increase in reduction in social investigation time at 0.50 mg/kg, po for 7 days and measured on day 9 (reference value: -0.5%); format: functional; design: scale not given: the % may be the effect or the level left
[21] = Drug concentration in Wistar rat plasma at 10 mg/kg, po after 4 hrs by LC-MS/MS analysis; format: ADME, organism-based
Rattus norvegicus [22] = experiment: Memory enhancement effect in scopolamine-induced Wistar rat model of amnesia assessed as exploration time for novel object in retention trial at 0.5 mg/kg, po for 7 days and measured on day 8 by novel object recognition test (reference value: 12.09 sec); format: functional
Rattus norvegicus [23] = experiment: Memory enhancement effect in time-delay induced Wistar rat model of amnesia assessed as exploration time for novel object in retention trial at 0.05 mg/kg, po for 7 days and measured on day 8 by novel object recognition test (reference value: 15.37 sec); format: functional
Rattus norvegicus [24] = experiment: Memory enhancement effect in scopolamine-induced Wistar rat model of amnesia assessed as exploration time for novel object in retention trial at 0.15 mg/kg, po for 7 days and measured on day 8 by novel object recognition test (reference value: 12.09 sec); format: functional
Rattus norvegicus [25] = experiment: Memory enhancement effect in time-delay induced Wistar rat model of amnesia assessed as exploration time for familiar object in retention trial at 0.15 mg/kg, po for 7 days and measured on day 8 by novel object recognition test (reference value: 10.20 sec); format: functional
[26] = AUC (0 to 144 hrs) in Wistar rat at 10 mg/kg, po after 0.25 to 144 hrs by LC-MS/MS analysis; format: ADME, organism-based; design: dose 10 mg/kg, time < 144 hr, route oral; settings: in vivo
Rattus norvegicus [27] = experiment: Memory enhancement effect in time-delay induced Wistar rat model of amnesia assessed as exploration time for object2 at 1 mg/kg, po administered as single dose after acquisition trial by novel object recognition test (reference value: 21.07 sec); format: functional
[28] = Oral bioavailability in BALB/c mouse at 10 mg/kg after 0.25 to 144 hrs by LC-MS/MS analysis; format: ADME, organism-based; settings: in vivo
[29] = Drug concentration in Wistar rat plasma at 10 mg/kg, po after 48 hrs by LC-MS/MS analysis; format: ADME, organism-based
Rattus norvegicus [30] = experiment: Memory enhancement effect in scopolamine-induced Wistar rat model of amnesia assessed as increase in exploration time for novel object in retention trial at 0.05 mg/kg, po administered as single dose and measured on day 9 by novel object recognition test (reference value: 12.09 sec); format: functional
Rattus norvegicus [31] = experiment: Memory enhancement effect in time-delay induced Wistar rat model of amnesia assessed as exploration time for object1 in acquisition trial at 1 mg/kg, po administered as single dose and measured on day 8 by novel object recognition test (reference value: 13.95 sec); format: functional

For `CCC(=O)c1sc(-c2ccc(Cl)cc2)c(C)c1-c1ccc(S(N)(=O)=O)cc1`, the fraction unbound at 16 h, 5 µM [1] was 0.0015, the Kp at 1 h [2] was 4.63 and the remaining at 0.5 h, 1 µM [3] was 94%. The AUC(0-t) [4] was 301 µM·h, the concentration [5] was 40 nM and the Activity_index (Rattus norvegicus [6]) was 0.3. It also gave a fraction unbound at 16 h, 5 µM [7] of 0.0116, a bioavailability [8] of 74% and a half-life [9] of 48 to 80.9 h. The Time (Rattus norvegicus [10]) was 25.56 s, the Activity_index (Rattus norvegicus [11]) was 0.52 and the Time (Rattus norvegicus [12]) was 6.63 s. It also gave an AUC(0-t) [13] of 63 µM·h, an Activity_index (Rattus norvegicus [14]) of 0.38 and a Kp at 144 h [15] of 10. It also gave a concentration at 168 h [16] of 320 nM, a fraction unbound at 16 h, 5 µM [17] of 0.0058 and a Drug metabolism [18] of 0.01 nmol/min/mg. It also gave a Time (Rattus norvegicus [19]) of 14.65 s, an Activity (Rattus norvegicus [20]) of 46.16% and a concentration at 4 h [21] of 850 nM. The Time (Rattus norvegicus [22]) was 15.06 s, the Time (Rattus norvegicus [23]) was 13.91 s and the Time (Rattus norvegicus [24]) was 12.8 s. For the same compound, the Time (Rattus norvegicus [25]) was 3.79 s, the AUC(0-t) at 144 h [26] was 201 µM·h and the Time (Rattus norvegicus [27]) was 25.36 s. The bioavailability [28] was 57%, the concentration at 48 h [29] was 620 nM and the Time (Rattus norvegicus [30]) was 14.65 s. It also gave a Time (Rattus norvegicus [31]) of 23.61 s.
